# Experimental data published in PMC10959927, “Platinum iodido drugs show potential anti-tumor activity, affecting cancer cell metabolism and inducing ROS and senescence in gastrointestinal cancer cells” (Communications Biology, 2024).
# Where “and” joins values, the source holds several entries; their conditions need not be identical. Equal values may be shown once.
# Experiments:
# Type in all cases: cell-based, human
# AGS cells [1] = assay: Clonogenic (CFU) assay with or without NAC; conditions: 10 days
# Procedure: (§1) For the clonogenic assay we used two different approaches. […] Then, cells were cultured in a 6-well plate at a very low concentration (2 × 10^3 cells per well) and incubated for 10 days. […] To evaluate the role of ROS in cell proliferation, we supplemented the growth medium with 0.5 mM NAC. After 10 days, the cells were fixed with 1% glutaraldehyde and stained with 0.1% crystal violet. The number of colonies was quantified directly and reflected as CFUs: Colony Forming Units.
# MKN45 cells [2] = assay: Clonogenic (CFU) assay with or without NAC; conditions: 10 days
# Procedure: as §1
# PANC1 cells [3] = assay: Clonogenic (CFU) assay after 1, 3, 24 h pre-treatment
# Procedure: as §1
# MKN45 cells [4] = assay: Immunofluorescence of γ-H2AX foci; conditions: Fig. 3B; for foci/cell, number of cells in class: cell count
# Procedure: Cells (7 × 10^4) were seeded on 20 mm coverslips. […] Coverslips were incubated for 1 h with the primary antibody (Cell Signaling: H2AX Ser139 (#2595) and 53BP1 (#4937)) at room temperature, followed by a 1 h incubation with the appropriate secondary antibody. DNA was stained with DAPI. Fluorescence microscopy was performed using a NIKON Eclipse 90i. The image analysis was performed using the software program Nikon NIS-Elements and Image J.
# PANC1 cells [5] = assay: ROS detection by confocal microscopy (DHE, MitoSox); conditions: PANC1, 1 h treatment; H2O2 200 µM, CDDP 10 µM, I5 20 µM, I6 20 µM
# Procedure: Tumor cells were seeded at a density of 3 × 10^5 cells in 15 µm 8-well IBIDI plates and incubated overnight. […] Subsequently, cells were stained with 10 μM of dihydroethidium (DHE, cytosolic O2^·- probe, Sigma-Aldrich) or with 5 μM of Mitosox (mitochondrial O2^·- probe, Sigma-Aldrich) for 15–30 min[79] and then visualized on a confocal microscope (Confocal LSM 710 Zeiss, Biomedical Research Institute Alberto Sols, IIBm-CSIC-UAM, Madrid, Spain). The image analysis was realized using the software program Image J.
# AGS cells [6] = assay: Western blotting (p-p53, p-JNK, p-p38, p-ERK, p-CHK1/2, Mcl1, BID, BAX); conditions: for fold change p-ERK vs Tubulin / fold change p-JNK vs Tubulin / fold change p-p38 vs Tubulin / fold change p-p53 vs Tubulin: Fig. 4A, replicate values; for fold change BAX vs Tubulin / fold change BID full length vs Tubulin / fold change MCL1 vs Tubulin: Fig. S3B
# Procedure: (§2) Total protein extracts were obtained by adding the lysis buffer: 25 mM HEPES pH 7.5, 0.3 M NaCl, 1.5 mM MgCl2, 0.2 mM EDTA, 0.5 mM DTT, 20 mM β-glicerophosphate, 0.1 mM Na3VO4, 0.1% triton X-100; in the presence of protease inhibitors. Twenty μg of protein per sample were loaded and resolved using 8%, 10% or 15% SDS-PAGE polyacrylamide gels, and then transferred onto PVDF membranes, followed by immunodetection using appropriate antibodies, purchased from Santa Cruz Technology: Mcl-1 (sc-819), Cell Signaling Technology: BIM, BID, BAX (#9942), p-p38 (1:2000, #4631), p-p53^ser15 (#9284), p-ERK1/2 (1:2000, #9106), p-CHK1^ser345 and p-CHK2^ser19 (#9931), Promega Corporation-Spain: p-JNK (#V7932), or Sigma-Aldrich: α-tubulin (1:10000, #TP026). Unless indicated, all antibodies were diluted 1:1000. Secondary antibodies conjugated with horseradish peroxidase were purchased from BioRad, and chemiluminescence detection was performed using ECL (Santa Cruz Biotechnology).
# PANC1 cells [7] = assay: as above; conditions: for fold change BAX vs Tubulin / fold change MCL1 vs Tubulin: Fig. S3B; for fold change p-ERK vs Tubulin / fold change p-JNK vs Tubulin / fold change p-p38 vs Tubulin / fold change p-p53 vs Tubulin: PANC1, Fig. 4A, replicate values
# Procedure: as §2
# AGS cells [8] = assay: SA-β-Gal histochemical staining; conditions: Fig. S4A
# Procedure: SA-β-Gal activity was measured following two different approaches. (i) AGS, MKN45 and PANC1 cells (5 × 10^4) were seeded in 24-multiwell dishes and incubated overnight. […] For flow cytometry cell senescence detection, cells were tripsinized, fixed for 15 min with PFA 4% and stained with the CellEvent Senescense Green Flow Cytometry Assay Kit (C10840, Invitrogen) according to manufacturer’s instructions. CellEvent Senescense Green Probe was used at a 1:500 dilution and fluorescence was detected using the filter (Ex488nm/Em530/30) BL1 with a 4-laser Attune NxT Acoustic Cytometer (Thermo Fisher Scientific). […] After 3 h, the treatments were removed, new supplemented medium was added, and cells were incubated for an additional 24 h. Finally, SA-β-Gal staining was performed using the Senescence Cells Histochemical Staining Kit (CS0030-1KT) according to the manufacturer’s instructions.
structure (smiles),measurement,setting,value
"CC(C)[NH][Pt@SP1]([I])([I])[NH]C(C)C [I6, cis-[PtI2(isopropylamine)2]]","colonies (CFUs), mean ± SD","AGS cells [1]; AGS + NAC 0.5 mM, IC25 concentration",613 ± 89
same,"colonies (CFUs), mean ± SD","AGS cells [1]; AGS + NAC 0.5 mM, IC50 concentration",329 ± 152
same,"colonies (CFUs), mean ± SD","AGS cells [1]; AGS, IC25 concentration, no NAC",268 ± 63
same,"colonies (CFUs), mean ± SD","AGS cells [1]; AGS, IC50 concentration, no NAC",0
same,"colonies (CFUs), mean ± SD","MKN45 cells [2]; MKN45 + NAC 0.5 mM, IC25 concentration",526 ± 93
same,"colonies (CFUs), mean ± SD","MKN45 cells [2]; MKN45 + NAC 0.5 mM, IC50 concentration",46 ± 2
same,"colonies (CFUs), mean ± SD","MKN45 cells [2]; MKN45, IC25 concentration, no NAC",1 ± 1.7
same,"colonies (CFUs), mean ± SD","MKN45 cells [2]; MKN45, IC50 concentration, no NAC",0
same,CFUs,"PANC1 cells [3]; PANC1, 1 h pre-treatment at IC50, colonies after 10 days",336 and 264 and 360
same,CFUs,"PANC1 cells [3]; PANC1, 3 h pre-treatment at IC50, colonies after 10 days",292 and 280 and 324
same,"foci/cell, share of cells in class (Suma 100)",MKN45 cells [4]; class 16-30 foci/cell,16.6667
same,"foci/cell, number of cells in class",MKN45 cells [4]; class 16-30 foci/cell,7
same,"foci/cell, share of cells in class (Suma 100)",MKN45 cells [4]; class 31-45 foci/cell,14.2857
same,"foci/cell, number of cells in class",MKN45 cells [4]; class 31-45 foci/cell,6
same,"foci/cell, share of cells in class (Suma 100)",MKN45 cells [4]; class 46-60 foci/cell,23.8095
same,"foci/cell, number of cells in class",MKN45 cells [4]; class 46-60 foci/cell,10
same,"foci/cell, share of cells in class (Suma 100)",MKN45 cells [4]; class <15 foci/cell,11.9048
same,"foci/cell, number of cells in class",MKN45 cells [4]; class <15 foci/cell,5
same,"foci/cell, share of cells in class (Suma 100)",MKN45 cells [4]; class >61 foci/cell,33.3333
same,"foci/cell, number of cells in class",MKN45 cells [4]; class >61 foci/cell,14
same,"DHE fluorescence intensity (per cell), cytosolic O2•−",PANC1 cells [5],98.4842 and 86.3637 and 85.797 and 82.1548 and 76.0203 and 75.3191
same,"Mitosox fluorescence intensity (per cell), mitochondrial O2•−",PANC1 cells [5],91.9093 and 80.7891 and 70.3911 and 69.2294 and 66.6051 and 57.9644
same,activation of p53 (p-p53 western blot),"AGS cells [6]; IC50, 1, 3, 6 and 24 h",did not activate p53
same,"phosphorylation of CHK1/2 (DDR pathway, western blot)","AGS cells [6]; IC50, 1, 3, 6 or 24 h",did not activate
same,fold change p-ERK vs Tubulin,AGS cells [6]; Time 1 h,2.604 fold change and 2.955 fold change and 1.91 fold change
same,fold change p-JNK vs Tubulin,AGS cells [6]; Time 1 h,1.478 fold change and 1.305 fold change and 1.607 fold change
same,fold change p-p38 vs Tubulin,AGS cells [6]; Time 1 h,1.462 fold change and 1.894 fold change and 2.196 fold change
same,fold change p-p53 vs Tubulin,AGS cells [6]; Time 1 h,0.562 fold change and 0.6997 fold change and 1.25 fold change
same,fold change p-ERK vs Tubulin,AGS cells [6]; Time 3 h,1.3326 fold change and 1.834 fold change and 1.749 fold change
same,fold change p-JNK vs Tubulin,AGS cells [6]; Time 3 h,0.8249 fold change and 0.7387 fold change and 1.623 fold change
same,fold change p-p38 vs Tubulin,AGS cells [6]; Time 3 h,1.1118 fold change and 2.258 fold change and 0.7258 fold change
same,fold change p-p53 vs Tubulin,AGS cells [6]; Time 3 h,0.3925 fold change and 0.7056 fold change and 1.358 fold change
same,fold change p-ERK vs Tubulin,AGS cells [6]; Time 6 h,1.495 fold change and 1.997 fold change and 1.556 fold change
same,fold change p-JNK vs Tubulin,AGS cells [6]; Time 6 h,0.7672 fold change and 1.335 fold change and 1.232 fold change
same,fold change p-p38 vs Tubulin,AGS cells [6]; Time 6 h,1.675 fold change and 3.507 fold change and 1.086 fold change
same,fold change p-p53 vs Tubulin,AGS cells [6]; Time 6 h,0.5607 fold change and 0.7436 fold change and 1.621 fold change
same,fold change p-ERK vs Tubulin,AGS cells [6]; Time 24 h,0.7805 fold change and 2.6246 fold change and 1.218 fold change
same,fold change p-JNK vs Tubulin,AGS cells [6]; Time 24 h,0.8639 fold change and 0.8519 fold change and 1.138 fold change
same,fold change p-p38 vs Tubulin,AGS cells [6]; Time 24 h,2.641 fold change and 0.9281 fold change and 1.316 fold change
same,fold change p-p53 vs Tubulin,AGS cells [6]; Time 24 h,0.6954 fold change and 1.1071 fold change and 1.226 fold change
same,fold change BAX vs Tubulin,AGS cells [6]; time 1 h,1.29 fold change and 0.734 fold change and 1.017 fold change
same,fold change BID full length vs Tubulin,AGS cells [6]; time 1 h,0.722 fold change and 1.325 fold change and 0.67 fold change
same,fold change MCL1 vs Tubulin,AGS cells [6]; time 1 h,0.493 fold change and 0.586 fold change and 0.597 fold change
same,fold change BAX vs Tubulin,AGS cells [6]; time 3 h,0.759 fold change and 1.497 fold change and 1.286 fold change
same,fold change BID full length vs Tubulin,AGS cells [6]; time 3 h,1.126 fold change and 1.525 fold change and 0.803 fold change
same,fold change MCL1 vs Tubulin,AGS cells [6]; time 3 h,0.592 fold change and 1.105 fold change and 0.81 fold change
same,fold change BAX vs Tubulin,AGS cells [6]; time 6 h,1.353 fold change and 1.942 fold change and 1.061 fold change
same,fold change MCL1 vs Tubulin,AGS cells [6]; time 6 h,0.911 fold change and 1.666 fold change and 1.549 fold change
same,fold change BID full length vs Tubulin,AGS cells [6]; time 24 h,1.406 fold change and 1.917 fold change and 1.97 fold change
same,activation of p53 (p-p53 western blot),"PANC1 cells [7]; PANC1, IC50, 1, 3, 6 and 24 h",did not activate p53
same,"phosphorylation of CHK1/2 (DDR pathway, western blot)","PANC1 cells [7]; PANC1, IC50, 1, 3, 6 or 24 h",did not activate
same,fold change BAX vs Tubulin,"PANC1 cells [7]; PANC1, time 1 h",1.132 fold change and 1.289 fold change and 1.219 fold change
same,fold change MCL1 vs Tubulin,"PANC1 cells [7]; PANC1, time 1 h",0.6156 fold change and 0.9493 fold change and 1.031 fold change
same,fold change BAX vs Tubulin,"PANC1 cells [7]; PANC1, time 3 h",1.6811 fold change and 1.471 fold change and 1.573 fold change
same,fold change BAX vs Tubulin,"PANC1 cells [7]; PANC1, time 6 h",1.615 fold change and 2.78 fold change and 2.056 fold change
same,fold change MCL1 vs Tubulin,"PANC1 cells [7]; PANC1, time 6 h",1.135 fold change and 2.241 fold change and 1.84 fold change
same,fold change BAX vs Tubulin,"PANC1 cells [7]; PANC1, time 24 h",2.639 fold change and 1.942 fold change and 1.489 fold change
same,fold change p-ERK vs Tubulin,PANC1 cells [7]; Time 1 h,1.209 fold change and 3.621 fold change and 2.27 fold change
same,fold change p-JNK vs Tubulin,PANC1 cells [7]; Time 1 h,1.809 fold change and 1.288 fold change and 3.68 fold change
same,fold change p-p38 vs Tubulin,PANC1 cells [7]; Time 1 h,2.603 fold change and 1.024 fold change and 1.89 fold change
same,fold change p-p53 vs Tubulin,PANC1 cells [7]; Time 1 h,0.76 fold change and 1.24 fold change and 0.65 fold change
same,fold change p-ERK vs Tubulin,PANC1 cells [7]; Time 3 h,0.5754 fold change and 1.698 fold change and 1.17 fold change
same,fold change p-JNK vs Tubulin,PANC1 cells [7]; Time 3 h,0.5257 fold change and 0.2509 fold change and 3.356 fold change
same,fold change p-p38 vs Tubulin,PANC1 cells [7]; Time 3 h,1.159 fold change and 1.033 fold change and 1.07 fold change
same,fold change p-p53 vs Tubulin,PANC1 cells [7]; Time 3 h,0.78 fold change and 1.36 fold change and 1.16 fold change
same,fold change p-ERK vs Tubulin,PANC1 cells [7]; Time 6 h,0.6008 fold change and 2.546 fold change and 1.66 fold change
same,fold change p-JNK vs Tubulin,PANC1 cells [7]; Time 6 h,0.6321 fold change and 0.3554 fold change and 4.716 fold change
same,fold change p-p38 vs Tubulin,PANC1 cells [7]; Time 6 h,0.976 fold change and 1.156 fold change and 1.0897 fold change
same,fold change p-p53 vs Tubulin,PANC1 cells [7]; Time 6 h,1.01 fold change and 0.69 fold change and 0.99 fold change
same,fold change p-ERK vs Tubulin,PANC1 cells [7]; Time 24 h,0.4409 fold change and 1.892 fold change and 1.09 fold change
same,fold change p-JNK vs Tubulin,PANC1 cells [7]; Time 24 h,0.5968 fold change and 0.8335 fold change and 2.596 fold change
same,fold change p-p38 vs Tubulin,PANC1 cells [7]; Time 24 h,1.91 fold change and 1.31 fold change and 1.357 fold change
same,fold change p-p53 vs Tubulin,PANC1 cells [7]; Time 24 h,2.28 fold change and 1.99 fold change and 1.04 fold change
same,Fold change % Senescence,AGS cells [8],49.02% and 67.7% and 53.18%
